From US8722937B2 (priority 2006, dated 2014)
≈ marks a conversion by molar mass, not a printed value. Read-outs that look alike come from different tables or passages of the source.

How the values were obtained:
S. aureus (ATCC 25923) [1] = test: microbe, parasite or virus in culture; format: cell-based, Staphylococcus aureus; settings: 24 h, 37° C.; for zone of inhibition at 20 µg/disc: Staphylococcus aureus, ATCC25923
B. anthracis (USF 848) [2] = test: microbe, parasite or virus in culture; format: cell-based, Bacillus anthracis; settings: Bacillus anthracis, 24 h, 37° C.
B. anthracis (USF 848) [3] = test: microbe, parasite or virus in culture; format: cell-based, Bacillus anthracis; settings: Bacillus anthracis, read-out: Minimum inhibitory concentration (MIC) against B. anthracis (USF 848)
[4] = tested on: methicillin-resistant S. aureus (MRSA); test: microbe, parasite or virus in culture; format: cell-based, Staphylococcus aureus; settings: 24 h, 37° C.; for zone of inhibition at 20 µg/disc: Staphylococcus aureus, MRSA, read-out: Average zones of growth inhibition of MRSA (USF-652-659, 919-920)
S. aureus (ATCC 25923) [5] = test: Agar dilution minimum inhibitory concentration (MIC), S. aureus; format: cell-based, Staphylococcus aureus; settings: Staphylococcus aureus, ATCC25923; serial dilution in 24-well plate, NCCLS; read-out: Minimum inhibitory concentration (MIC) against S. aureus (ATCC 25923)
[6] = tested on: E. coli (K12; ATCC 23590); test: Kirby-Bauer zones of inhibition, E. coli; format: cell-based, Escherichia coli; settings: full or partial not stated
[7] = read-out: Zones of growth inhibition of S. aureus (ATCC 25923), areas of partial inhibition
[8] = read-out: Zones of growth inhibition of B. anthracis (USF 848)
[9] = read-out: Zones of growth inhibition of B. anthracis (USF 848), areas of partial growth inhibition
[10] = read-out: Zones of growth inhibition of S. aureus (ATCC 25923)

Structure (SMILES)	zone of inhibition at 20 µg/disc (S. aureus (ATCC 25923) [1]; [7]) [mm]	zone of inhibition at 20 µg/disc (B. anthracis (USF 848) [2]; [8]) [mm]	MIC (B. anthracis (USF 848) [3]) [µg/mL]	MIC (S. aureus (ATCC 25923) [5]) [µg/mL]	zone of inhibition at 20 µg/disc (S. aureus (ATCC 25923) [1]; [10]) [mm]	further results
CC(C)SSc1ccccc1Cl [Compound 34c, o-Chlorophenyl Isopropyl Disulfide]	11	–	–	–	–	–
CC(C)SSc1ccccc1[N+](=O)[O-] [Compound 44c, Isopropyl o-nitrophenyl Disulfide]	31	16	0.63 (≈ 2.75 µM)	6 (≈ 26.2 µM)	17	zone of inhibition at 20 µg/disc (B. anthracis (USF 848) [2]; [9]): 27 mm; zone of inhibition at 20 µg/disc [4]: 20 mm; Zones of growth inhibition of S. aureus (ATCC 25923) (S. aureus (ATCC 25923) [1]): 17 (31) mm; Zones of growth inhibition of S. aureus (ATCC 25923), areas of partial inhibition (S. aureus (ATCC 25923) [1]): 17 (31) mm
CCC(C)SSc1ccccc1Cl (stereo not shown) [Compound 34d, s-Butyl o-chlorophenyl Disulfide]	10	–	–	–	–	–
CCOc1cccc(SSC)c1 [Compound 36a, m-Ethoxyphenyl Methyl Disulfide]	9	–	–	–	–	–
CCSS(C)(=O)=O [Compound 26b]	–	–	–	–	–	Zones of growth inhibition, MRSA [4]: 20 mm; Zones of growth inhibition, S. aureus (S. aureus (ATCC 25923) [1]): 19 mm
CCC(C)SSc1cccc([N+](=O)[O-])c1 (stereo not shown) [Compound 43d, s-Butyl m-nitrophenyl Disulfide]	45	27	< 0.125	2 (≈ 8.22 µM)	25	zone of inhibition at 20 µg/disc (B. anthracis (USF 848) [2]; [9]): 41 mm; zone of inhibition at 20 µg/disc [4]: 22 mm; Zones of growth inhibition of S. aureus (ATCC 25923) (S. aureus (ATCC 25923) [1]): 25 (45) mm; Zones of growth inhibition of S. aureus (ATCC 25923), areas of partial inhibition (S. aureus (ATCC 25923) [1]): 25 (45) mm
CCSSCCNC(=O)CCNC(=O)[C@H](O)C(C)(C)COP(=O)(O)OP(=O)(O)OC[C@H]1O[C@@H](n2cnc3c(N)ncnc32)[C@H](O)[C@@H]1OP(=O)(O)O [Compound 25b]	–	–	–	–	–	Zones of growth inhibition, MRSA [4]: 0 mm; Zones of growth inhibition, S. aureus (S. aureus (ATCC 25923) [1]): 0 mm
CCCSSc1ccccc1Cl [Compound 34e, o-Chlorophenyl n-propyl Disulfide]	–	–	–	–	0	–
CCC(C)SSc1ccccc1[N+](=O)[O-] (stereo not shown) [Compound 44d, s-Butyl o-nitrophenyl Disulfide]	24	23	0.75 (≈ 3.08 µM)	16 (≈ 65.7 µM)	15	Zones of growth inhibition of S. aureus (ATCC 25923) (S. aureus (ATCC 25923) [1]): 15 (24) mm; Zones of growth inhibition of S. aureus (ATCC 25923), areas of partial inhibition (S. aureus (ATCC 25923) [1]): 15 (24) mm
CCCSSc1ccc(C)c(C)c1 [Compound 35e, 3,4-Dimethylphenyl n-propyl Disulfide]	–	–	–	–	0	–
CCSSc1ccccc1Cl [Compound 34b, o-Chlorophenyl Ethyl Disulfide]	9	–	–	–	–	–
CCSSc1cccc([N+](=O)[O-])c1 [Compound 43b, Ethyl m-nitrophenyl Disulfide]	45	32	0.38 (≈ 1.76 µM)	48 (≈ 223 µM)	–	zone of inhibition at 20 µg/disc (B. anthracis (USF 848) [2]; [9]): 40 mm; zone of inhibition at 20 µg/disc [4]: 12 mm
CSSc1ccc(F)c(F)c1 [Compound 33a, 3,4-Difluorophenyl Methyl Disulfide]	11	–	–	–	–	–
CC(C)SSc1cccc([N+](=O)[O-])c1 [Compound 43c, Isopropyl m-nitrophenyl Disulfide]	85	30	< 0.125	0.4 (≈ 1.74 µM)	55	zone of inhibition at 20 µg/disc (B. anthracis (USF 848) [2]; [9]): 54 mm; zone of inhibition at 20 µg/disc [4]: 38 mm; Zones of growth inhibition of S. aureus (ATCC 25923) (S. aureus (ATCC 25923) [1]): 55 (85) mm; Zones of growth inhibition of S. aureus (ATCC 25923), areas of partial inhibition (S. aureus (ATCC 25923) [1]): 55 (85) mm
CSSc1ccc(N)cc1 [Compound 39a, p-Aminophenyl Methyl Disulfide]	–	–	–	–	0	–
CCCCSSc1ccc(C)c(C)c1 [Compound 35f, n-Butyl 3,4-dimethylphenyl Disulfide]	–	–	–	–	0	–
CSSc1cccc([N+](=O)[O-])c1 [Compound 43a, Methyl m-nitrophenyl Disulfide]	36	43	2 (≈ 9.94 µM)	16 (≈ 79.5 µM)	27	zone of inhibition against E. coli [6]: 10 mm; zone of inhibition at 20 µg/disc [4]: 15 mm; Zones of growth inhibition of S. aureus (ATCC 25923) (S. aureus (ATCC 25923) [1]): 27 (36) mm; Zones of growth inhibition of S. aureus (ATCC 25923), areas of partial inhibition (S. aureus (ATCC 25923) [1]): 27 (36) mm
CC(C)SSc1ccc(F)c(F)c1 [Compound 33c, 3,4-Difluorophenyl Isopropyl Disulfide]	9	–	–	–	–	–
CCCSSc1ccc(F)c(F)c1 [Compound 33e, 3,4-Difluorophenyl n-propyl Disulfide]	–	–	–	–	0	–
